This is an account of results in patent US12286488B2, “Anti-dinitolmide monoclonal antibodies and hybridoma cell strain that secretes them” (JIANGNAN UNIVERSITY, priority 2020, dated 2025).

For this experiment, the system named is anti-dinitolmide monoclonal antibody secreted by hybridoma cell strain DAS3H10. Nature of the experiment: indirect competitive ELISA (IC50 and cross-reaction rates). The settings on record: for IC50: dinitolmide monoclonal antibody; for cross-reaction rates: relative to dinitolmide. Format: binding, mouse. An excerpt: The basic steps for the preparation of the DAS3H10 cell line provided by the invention are: • (1) Preparation and identification of immunogen: 3,5-dinitro-2-methylbenzoic acid, which is a structure analogue of dinitolmide, was used as a raw material and connected to the amino group of the protein carrier with the activated ester method. After the reaction was completed, the complete immunogen and the unconnected small molecule hapten were separated by dialysis. And the complete immunogen was identified by UV-VIS absorption spectrometry. • (2) Immunization of mice: BALB/c mice aged 6-8 weeks were selected for immunization. The immunogen, which was emulsified with […], was injected to the BALB/c mice by subcutaneous injection at multiple points. The Faust complete adjuvant was used for the first immunization, the Faust incomplete adjuvant was used for the booster immunization, and the commixture of the immunogen and normal saline was used for the sprint immunization by intraperitoneal injection. Each immunization dose was half of the previous immunization dose, and the interval between each immunization was three weeks. After the third immunization, blood collection was collected every one week for the detection of serum titer and inhibition. • (3) Cell fusion and cell line establishment: the cell fusion of mouse spleen cells and mouse myeloma cells was accomplished by polyethylene glycol (PEG 2000). After cultured culturing in HAT medium, there was detection of positive cells wells by indirect ELISA, and further detection of the inhibition effect of positive cell wells by indirect competition ELISA. Positive cell wells with the best inhibition effect were subcloned three times by limiting dilution assay, and finally the hybridoma cell strain DAS3H10 was finally screened. • (4) Identification of the properties of hybridoma cell strains: the identification of hybridoma cell strains were determined by HRP, and IC50, cross-reaction rates and affinity were determined by ELISA.
4. Cell screening and cell line establishment: during the cell fusion, half of the RPMI-1640 screening medium of the fusion cell was changed on the 3rd day, and all was replaced by the RPMI-1640 screening medium with 20% fetal bovine serum, 1% of 100×HT on the fifth day. The cell supernatant was used for screening on the 7th day, which is divided into two steps: the first step is to screen out the positive cell wells with indirect ELISA, the second step is to detect the inhibition effect of positive cell wells by indirect competition ELISA with dinitolmide used as the standard substance. The cell wells with good inhibition effect of dinitrotolamine were selected to be subcloned with finite dilution assay, and the inhibition effect was detected in the same way. This process was repeated three times to obtain the cell line.
6. […] Each sample was added to 3 wells. […]
Background: An ELISA detects its analyte on a solid surface through an enzyme-linked reagent.

≈ marks a conversion by molar mass, not a printed value.

The molecule `N#CC(c1ccc(Cl)cc1)c1c(Cl)cc(-n2ncc(=O)[nH]c2=O)cc1Cl` (centres unmarked) [dikjuli] gave a half-inhibitory concentration (IC50) of more than 0.5 µg/mL and a cross-reaction rates of less than 5%.

For `Cc1c(C(N)=O)cc([N+](=O)[O-])cc1[N+](=O)[O-]` [dinitolmide], the IC50 was found to be 0.00901 µg/mL (≈ 0.04 µM) and the cross-reaction rates amounted to 100%.

Take `Cc1cc(-n2c(=O)[nH]c(=O)n(C)c2=O)ccc1Oc1ccc(SC(F)(F)F)cc1` [torquoly]: the 50% inhibitory concentration (IC50) is more than 0.5 µg/mL and the cross-reaction rates is reported as less than 5%.

Molecule nicarbazine gave an IC50 of more than 0.5 µg/mL and a cross-reaction rates of less than 5%.

What is called IC50 is the concentration at which inhibition is half-maximal.
